Consider eight compounds from paper PMC10477886, “Adamantaniline Derivatives Target ATP5B to Inhibit Translation of Hypoxia Inducible Factor‐1α” (Advanced Science, 2023).

The test system of one data set is MHCC97‐L xenograft tumor. The experiment in a line: MHCC97‐L xenograft model in nude mice (wildtype and ATP5A/ATP5B knock‐out). It is filed as in vivo. The source says: HIF‐1α overexpression is implicated in human hepatocellular carcinoma (HCC).^[ [57] ^] To investigate the biological significance of HI‐104 in the progression of HCC by targeting ATP5A or ATP5B, we performed xenograft models in nude mice with ATP5A or ATP5B stable knock‐out MHCC97‐L cell lines (Figure 6A). The cells were inoculated to 6–8 weeks old nude mice under the armpits, and daily intraperitoneal injection of HI‐104 was started after the tumor volume reached 100 mm^3. Tumor volume and body weight were monitored during the treatment.
MHCC97L wildtype and ATP5A or ATP5B stable knock‐out cells (3 × 10^6) were implanted subcutaneously into the right flanks of 6‐week‐old female BALB/c nude mice. After most of the tumors had reached a threshold size of 100 mm^3, the mice received an intraperitoneal injection of vehicle alone (10% DMSO, 10% Cremophor, and 80% saline, pH 7–8) or HI‐104 over 10 days. The tumor volume was monitored every other day with calipers. After 10 days of treatment or if the mice met humane endpoint criteria, the mice were sacrificed, and tumors were dissected, photographed, and weighed. Tumor tissues were either collected and fixed in 10% neutral‐buffered formalin or snap‐frozen in liquid N2 and stored at −80 °C for subsequent analyses. All animals used in this study were handled in accordance with federal and institutional guidelines under a protocol approved by the Institutional Animal Care and Use Committee at Shanghai Jiao Tong University School of Medicine.

Data set [1] is described as follows: toxicity in ICR mice, administering for 1 week. The settings on record: 100 mg kg^−1 intraperitoneal for 1 week. It is filed as in vivo. The method, then: (§1) First, we roughly screened the concentrations in the plasma of seven selected compounds (1‐3n, 1‐3au, 1‐4a, 1‐4k, 1‐4l, 1‐4m, and 1‐4p) at indicated times after intraperitoneal administration in the Institute of Cancer Research (ICR) mice at a dose of 50 mg kg^−1 with two mice per compound, the blood at five different times was collected and the plasma concentration was analyzed finally. […] Besides, we examined the toxicity of HI‐104 in ICR mice by administering for 1 week at a dose of 100 mg kg^−1 by intraperitoneal injection.

Data set [2] has as its system HIF‐1α transcriptional activity. The data set is described as follows: dual‐luciferase assay (HRE‐Firefly Luciferase / renilla) of HIF‐1α transcriptional activity in HEK293T cells. It is filed as cell-based, human. The settings on record: for inhibition at 10 µM / IC50: Homo sapiens, HEK-293T, mean ± s.d. (n = 3); for inhibition at 10 µM: incubation 24 h, read-out: Inhibition rate [%] @ 10 µM; for IC50: HEK293T dual‐luciferase. The source says: To screen HIF‐1α inhibitors in a robust cell‐based assay, we optimized the dual‐luciferase assay with pLenti‐HIF‐1αP2A (P402A and P564A) instead of pLenti‐HIF‐1α in order to ensure the expression of HIF‐1α under normoxia condition. In the cell‐based assay, HEK293T cells were co‐transfected with pLenti‐HIF‐1αP2A, renilla, and hypoxia‐responsive element (HRE)‐Firefly Luciferase (Figure S1, Supporting Information). […] Three compounds were selected as the positive controls including two inhibitors (PX‐478 2HCl and BAY 87‐2243) and an activator (BAY 85‐3934) in the screening assay.
HEK293T cells were stably transfected with reporter plasmids pGMLV‐HRE‐LUC‐puromycin, pMSCV‐renilla‐hygromycin, and pLenti‐HIF‐1αP2A‐neomycin. Stable cell line constructed above, 293‐HIF‐1αP2A‐HRE‐Fluc‐Rluc, were seeded in 384‐well plates and cultured in DMEM with 10% FBS. The following day, the cells were pretreated with indicated chemical compounds from the National Compound Library of the Shanghai Institute of Materia Medica, Chinese Academy of Sciences by Mosquito HTS. The plate was then placed in an incubator chamber and incubated at 37 °C for 24 h. The ratio of firefly/renilla luciferase activity was determined by using the Envision (PerkinElmer).
Stable cell line 293‐HRE‐Fluc‐Rluc expressed luciferase and renilla or HEK293T cells transfected with indicated plasmids (pGL3‐HRE‐luciferase and pSV40‐renilla) were seeded in a 96‐well plate. The cells were co‐incubated with indicated compounds for 24 h and luciferase activities were detected in Microplate Reader (BioTek SYNEGRY H1) using the Dual Luciferase Reporter Assay System Kit (Promega, USA E1910) according to the manufacturer's instruction. The relative Luc activity was normalized by renilla activity. Three independent experiments were performed, and the calculated means and SDs are presented.

The nature of data set [3]: plasma concentration and pharmacokinetics after intraperitoneal administration in ICR mice. It is filed as in vivo. The settings on record: for concentration in the plasma (rough screen): intraperitoneal 50 mg kg^−1, two mice per compound, five times. How it is done:
as §1

The target of a further data set is F1‐ATP synthase complex (Sus scrofa, UniProt K7GLT8+P80021). The experiment in a line: fluorescence polarization binding assay. Further details: species or system pig. The source says:
ATP5A and ATP5B are important components of FOF1–ATP synthase, also known as ATP synthase, which is a protein complex that catalyzes ATP synthesis by utilizing energy from the translocation of protons across biological membranes.^[ [40] ^] FOF1‐ATP synthase consists of two domains: the membrane‐spanning domain, FO, which acts as a proton channel, and the soluble catalytic domain, F1, which synthesizes ATP and is composed of nine subunits(α 3 β 3 γδɛ).^[ [41], [42], [43], [44] ^] […] To verify whether HI‐101 targeted ATP5A and ATP5B, we knocked down the subunits of F1 domains separately by shRNA.
F1‐ATPase at indicated concentrations was incubated with HI‐103 (4 nM), bodipy‐1 was as a negative molecule, conduct the experiment after incubating in 96‐well microplates of black polystyrene for 10 min. The FP results were analyzed with GraphPad Prism 9.0.
(In general: Polarisation of emitted light reports the rotation of a fluorescent probe.)

In another data set the test system is HIF‐1α protein level. The data set is described as follows: western blot of HIF‐1α protein level in cells. It is filed as cell-based, human. The settings on record: hypoxia. The method, then:
Cells were lysed with RIPA lysis (Epizyme, PC101) containing 1% cocktail protease inhibitors (MCE), and protein concentrations were determined by BCA kits (Beyotime, P0012S). Samples were denatured using DS‐PAGE Protein Staining and Loading Buffer (5×) (Beyotime, P0015L) followed by boiling for 10 min at 98 °C then the proteins were fractionated by 10% or 12.5% SDS‐PAGE and transferred to Cellulose Nitrate Membrane Filters (WHATMAN). After blocking in 5% non‐fat milk for 2 h at room temperature, the membrane was incubated overnight with specific antibodies at 4 °C, followed by horseradish peroxidase (HRP)‐linked anti‐mouse or anti‐rabbit secondary antibody (Cell Signaling Technology). Finally, An Immobilon Western Chemiluminescent HRP Substrate Kit (Merck Millipore) was used for protein bands detection. In addition, blots were probed with anti‐β‐actin (Merck, Darmstadt, Germany) antibody as the internal control.
For orientation: In western blotting, separated proteins are transferred to a membrane and probed.

Sequence of F1‐ATP synthase complex (K7GLT8 entry or part of it): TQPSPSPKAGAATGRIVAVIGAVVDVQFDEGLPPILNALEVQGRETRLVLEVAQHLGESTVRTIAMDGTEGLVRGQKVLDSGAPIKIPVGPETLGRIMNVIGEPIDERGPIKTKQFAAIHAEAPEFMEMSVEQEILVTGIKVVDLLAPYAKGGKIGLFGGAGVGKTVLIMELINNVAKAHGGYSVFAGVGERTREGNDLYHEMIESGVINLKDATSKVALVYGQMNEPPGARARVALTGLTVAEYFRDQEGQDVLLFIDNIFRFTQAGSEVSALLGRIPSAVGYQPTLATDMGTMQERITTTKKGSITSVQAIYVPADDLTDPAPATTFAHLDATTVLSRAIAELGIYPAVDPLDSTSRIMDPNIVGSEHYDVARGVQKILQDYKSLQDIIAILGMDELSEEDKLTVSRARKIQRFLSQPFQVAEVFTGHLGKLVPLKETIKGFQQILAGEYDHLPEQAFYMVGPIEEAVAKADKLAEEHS
Sequence of F1‐ATP synthase complex (A0A286ZYL7 entry or part of it, further chain): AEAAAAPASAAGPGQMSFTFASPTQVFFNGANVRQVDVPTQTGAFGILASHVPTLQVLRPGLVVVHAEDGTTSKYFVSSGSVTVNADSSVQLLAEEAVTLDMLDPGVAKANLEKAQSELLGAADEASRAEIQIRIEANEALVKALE
Sequence of F1‐ATP synthase complex (A5GFX4 entry or part of it, further chain): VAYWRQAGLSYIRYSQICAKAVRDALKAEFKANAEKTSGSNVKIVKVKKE
Sequence of F1‐ATP synthase complex (P80021 44-553): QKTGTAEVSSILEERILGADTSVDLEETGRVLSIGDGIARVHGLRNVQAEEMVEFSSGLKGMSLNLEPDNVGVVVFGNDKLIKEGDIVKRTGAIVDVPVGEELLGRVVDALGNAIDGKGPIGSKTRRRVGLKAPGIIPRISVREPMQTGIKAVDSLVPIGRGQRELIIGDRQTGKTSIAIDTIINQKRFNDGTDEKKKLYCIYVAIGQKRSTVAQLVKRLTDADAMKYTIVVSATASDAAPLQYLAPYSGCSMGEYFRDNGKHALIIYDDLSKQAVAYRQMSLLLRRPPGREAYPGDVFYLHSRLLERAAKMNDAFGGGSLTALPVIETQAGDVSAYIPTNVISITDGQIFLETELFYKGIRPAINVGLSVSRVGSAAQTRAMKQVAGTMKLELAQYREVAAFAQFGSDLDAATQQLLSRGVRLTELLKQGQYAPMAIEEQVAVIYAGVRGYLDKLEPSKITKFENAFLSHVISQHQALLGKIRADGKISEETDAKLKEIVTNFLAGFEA

`C[N+](C)(C)CCCC(=O)Nc1ccc(C(=O)Nc2ccc(C34CC5CC(CC(C5)C3)C4)cc2)cc1` [1‐3au, 4‐((4‐((4‐((3r,5r,7r)‐Adamantan‐1‐yl)Phenyl)Carbamoyl)Phenyl)Amino)‐N,N,N‐Trimethyl‐4‐Oxobutan‐1‐Aminium]: the tumor growth entry in the data set on MHCC97‐L xenograft tumor (ATP5B KO MHCC97‐L xenograft models) was “almost had no effect”. Further, the “tumor volume and weight” value in the data set with MHCC97‐L xenograft tumor (wildtype MHCC97‐L xenograft, daily intraperitoneal injection) was “reduced the tumor volume and weight”. For the same compound, in the data set with MHCC97‐L xenograft tumor (wildtype MHCC97‐L xenograft, nude mice), the body weight entry is “tolerant weight loss”. For the same compound, the “toxicity (body weight and mental status)” value in data set [1] is “not overtly toxic”. The inhibition (usually the percentage by which the read-out fell short of the control) at 10 µM in data set [2] (HEK293T) came out at 89.9 ± 1.6%. Also, in data set [2], the IC50 (usually the concentration needed to halve the response being measured) came to 1300 ± 300 nM. Also, the “concentration in the plasma (rough screen)” value (“concentration in the plasma” for short) in data set [3] is recorded as “high concentration in the plasma”. Besides, the AUC in data set [3] (mouse, ip, intraperitoneal, plasma, read-out: area under the curve (AUC0‐24 h)) was determined as 861 µg·h/mL. In data set [3] (mouse, ip, intraperitoneal, plasma, read-out: maximum concentration (Cmax)), the Cmax was found to be 91.7 µg/mL. Further, in data set [3] (mouse, plasma, ip, intraperitoneal), the half-life (in general, how long it takes for the measured level to halve) is 5.66 h.

Consider `CC1=CC(C)=[N+]2C1=C(CCCC(=O)Nc1ccc(C(=O)Nc3ccc(C45CC6CC(CC(C6)C4)C5)cc3)cc1)c1c(C)cc(C)n1[B-]2(F)F` [1‐3z, N‐(4‐((3r,5r,7r)‐Adamantan‐1‐yl)Phenyl)−4‐(4‐(5,5‐Difluoro‐1,3,7,9‐Tetramethyl‐5H‐4l4,5l4‐Dipyrrolo[1,2‐c:2′,1′‐f][1,3,2]Diazaborinin‐10‐yl)Butanamido)Benzamide], for which, at F1‐ATP synthase complex, the Kd – broadly, the free concentration of one partner at which half of the binding sites on the other are occupied at equilibrium, for simple one-to-one binding – amounted to 2.6 nM. Besides, the inhibition at 10 µM in data set [2] (HEK293T) came out at 80.3 ± 1.2%. This compound also returned an IC50 in data set [2] of 2100 ± 500 nM.

`O=C(Nc1ccc(C23CC4CC(CC(C4)C2)C3)cc1)c1ccccn1` [1‐4a, N‐(4‐((3r,5r,7r)‐Adamantan‐1‐yl)Phenyl)Picolinamide]: in data set [2] (HEK293T), the inhibition at 10 µM came to 99.7 ± 0.2%. Moreover, the IC50 in data set [2] was 65 ± 22 nM. The “concentration in the plasma” value in data set [3] is reported as “barely detectable in the plasma”.

Consider `O=C(Nc1ccc(C23CC4CC(CC(C4)C2)C3)cc1)c1c[nH]cn1` [1‐4k, N‐(4‐((3r,5r,7r)‐Adamantan‐1‐yl)Phenyl)−1H‐Imidazole‐4‐Carboxamide], for which the inhibition at 10 µM in data set [2] (HEK293T) turned out to be 99.7 ± 0.2%. Also, half-maximal inhibition in data set [2] (IC50) was put at 86 ± 3 nM. Further, the “concentration in the plasma” value in data set [3] is “barely detectable in the plasma”.

Consider `Cn1cncc1C(=O)Nc1ccc(C23CC4CC(CC(C4)C2)C3)cc1` [1‐4l, N‐(4‐((3r,5r,7r)‐Adamantan‐1‐yl)Phenyl)−1‐Methyl‐1H‐Imidazole‐5‐Carboxamide], for which the inhibition at 10 µM in data set [2] (HEK293T) stood at 97.8 ± 0.6%. In data set [2], this compound yielded an IC50 of 83 ± 3 nM. In data set [3], the “concentration in the plasma” value is “barely detectable in the plasma”.

With `O=C(Nc1ccc(C23CC4CC(CC(C4)C2)C3)cc1)c1cc[nH]n1` [1‐4m, N‐(4‐((3r,5r,7r)‐Adamantan‐1‐yl)Phenyl)−1H‐Pyrazole‐3‐Carboxamide], in data set [2] (HEK293T), the inhibition at 10 µM turned out to be 99.8 ± 0.1%. In data set [2], this compound showed an IC50 of 79 ± 2 nM. Moreover, the “concentration in the plasma” value in data set [3] is “barely detectable in the plasma”.

Regarding `Nc1ccnc(C(=O)Nc2ccc(C34CC5CC(CC(C5)C3)C4)cc2)c1` [1‐4p, N‐(4‐((3r,5r,7r)‐Adamantan‐1‐yl)Phenyl)−4‐Aminopicolinamide], in data set [2] (HEK293T), the inhibition at 10 µM worked out at 99.2 ± 0.1%. Besides, in data set [2], the IC50 stood at 73 ± 2 nM. Besides, the “concentration in the plasma” value in data set [3] is given as “barely detectable in the plasma”.

For the compound `CC[C@H]1/C=C/C=C/C[C@@H](C)[C@H](O)[C@@](C)(O)C(=O)[C@@H](C)[C@H](O)[C@@H](C)C(=O)[C@@H](C)[C@H](O)[C@@H](C)/C=C/C(=O)O[C@@H]2[C@H](C)[C@H](CC1)O[C@]1(CC[C@H](C)[C@H](C[C@@H](C)O)O1)[C@H]2C` [Oligomycin, reference compound], the “HIF‐1α transcriptional activity (relative luciferase activity), in words” value in data set [2] (HEK293T, hypoxia) is “decreased HIF‐1α transcriptional activity and protein level in a dose‐dependent manner”. Moreover, in the data set on HIF‐1α protein level, the “HIF‐1α protein level” value is “decreased HIF‐1α transcriptional activity and protein level in a dose‐dependent manner”.
